biological target: T1, human GPR91 receptor (Homo sapiens, UniProt Q9BXA5); test: Human GPR91 calcium mobilization assay; format: cell-based; conditions: CHO-K1 NFAT cells over expressing human GPR91 receptor; Fluo4 AM; agonist sodium succinate; flex station; read-out: hGPR91 IC50 (μM)*
T1 construct: expressed in transfected cells; host or cells: CHO-K1 NFAT cells
T1 sequence (Q9BXA5 1-334): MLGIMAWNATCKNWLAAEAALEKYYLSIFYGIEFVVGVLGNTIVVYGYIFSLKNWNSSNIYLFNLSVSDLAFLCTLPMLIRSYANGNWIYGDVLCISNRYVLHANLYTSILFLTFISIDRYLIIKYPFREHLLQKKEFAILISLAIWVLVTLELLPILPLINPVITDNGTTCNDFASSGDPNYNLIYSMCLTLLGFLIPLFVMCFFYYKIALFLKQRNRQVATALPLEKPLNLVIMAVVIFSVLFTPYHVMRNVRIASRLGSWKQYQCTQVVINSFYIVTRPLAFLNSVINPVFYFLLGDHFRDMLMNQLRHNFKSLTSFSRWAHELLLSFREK
Protocol: Human GPR91 Calcium Mobilization Assay
To determine IC50 in CHO NFAT cells over expressing human GPR91 receptor calcium mobilization assay in flex station mode was carried out.
Grow CHO-K1 NFAT cells over expressing human GPR91 receptors in alpha MEM media were supplemented with 10% FBS (heat inactivated), 0.5 mg/ml of G-418, 0.5 mg/ml of Zeocin and 0.6 mg/ml of Hygromycin B.
The cells were seeded at least 21 hours before the experiment at the density of 25000/well in 96 well plate (Corning cat #no. 3603). It was made sure that cells were at least 95% confluent on the day of assay. No antibiotics were used for seeding purpose.
On the day of assay the media was discarded from plates and plates were washed with 100 μl of HBSS assay buffer. The plates were loaded with Fluo4 AM at 2 μM concentration. Pluronic F-127 dye was solubilized in calcium assay buffer containing 0.1% BSA, i.e., 20 μl dye+20 μl Pluronic F127 for 10 ml. Appropriate amounts of 100× probenecid was added to the loading mixture 1× final (100 μl per 10 ml). Total volume of dye loaded was made 100 μl. The plate was then wrapped in aluminium foil to protect from light and were incubated for 90 mins at 37 degrees in cell culture incubator. At the end of incubation the plates was washed again with 100 μl of HBSS buffer without BSA and 75 μl of HBSS buffer was added (without BSA) to the plate.
Further, 8 point-Dose response curve of the compounds of the present disclosure was prepared in 100% DMSO followed by 57.14-fold dilution to 1.75× in 1.75% DMSO in assay buffer. 100 μL of 1.75×NCE was added to the wells as shown below and incubated at room temp on orbital shaker at 300 rpm for 15 min. Flexstation [excitation @ 485 nm and emission @ 525 nm] for a total time of 60 seconds. 25 μL of 8× agonist (800 μM sodium succinate) was added to each well using the flexstation after establishing the baseline for 20 sec, Measurement—Max-Min over 60 sec. Using the above protocol results obtained are tabulate din the Table 1 below: […]

Row | IC50 [µM] | Compound
1 | < 5 | O=C(O)Cc1cccc(Oc2ccc(Oc3cccc4ccncc34)cc2C(F)(F)F)c1 [Compound A-1, 2-[3-[4-(8-isoquinolyloxy)-2-(trifluoromethyl)phenoxy]phenyl]acetic acid]
2 | < 5 | O=C(O)Cc1cccc(Oc2ccc(Oc3cccc4cnncc34)cc2C(F)(F)F)c1 [Compound A-2, 2-[3-[4-phthalazin-5-yloxy-2-(trifluoromethyl)phenoxy]phenyl]acetic acid]
3 | < 5 | O=C(O)CCc1cccc(Oc2ccc(Oc3cccc4cnncc34)cc2C(F)(F)F)c1 [Compound A-3, 3-[3-[4-phthalazin-5-yloxy-2-(trifluoromethyl)phenoxy]phenyl]propanoic acid]
4 | < 5 | O=C(O)Cc1cccc(Oc2ccc(Oc3ccc(Cl)c4cnncc34)cc2C(F)(F)F)c1 [Compound A-4, 2-[3-[4-(8-chlorophthalazin-5-yl)oxy-2-(trifluoromethyl)phenoxy]phenyl]acetic acid]
5 | < 5 | Cn1ncc2cccc(Oc3ccc(Oc4cccc(CC(=O)O)c4)c(C(F)(F)F)c3)c21 [Compound A-5, 2-[3-[4-(1-methylindazol-7-yl)oxy-2-(trifluoromethyl)phenoxy]phenyl]acetic acid]
6 | 5 to 10 | O=C(O)Cc1cccc(Oc2ccc(Oc3ccc4ncccc4c3)cc2C(F)(F)F)c1 [Compound A-6, 2-[3-[4-(6-quinolyloxy)-2-(trifluoromethyl)phenoxy]phenyl]acetic acid]
7 | > 10 | O=C(O)CCc1cccc(Oc2ccc(Oc3cccn4ccnc34)cc2C(F)(F)F)c1 [Compound A-7, 3-[3-[4-imidazo[1,2-a]pyridin-8-yloxy-2-(trifluoromethyl)phenoxy]phenyl]propanoic acid]
8 | < 5 | O=C(O)Cc1cccc(Oc2ccc(Oc3ccc(F)c4ccncc34)cc2C(F)(F)F)c1 [Compound A-8, 2-[3-[4-[(5-fluoro-8-isoquinolyl)oxy]-2-(trifluoromethyl)phenoxy]phenyl]acetic acid]
9 | < 5 | O=C(O)Cc1cccc(Oc2ccc(Oc3cccc4ncncc34)cc2C(F)(F)F)c1 [Compound A-9, 2-[3-[4-quinazolin-5-yloxy-2-(trifluoromethyl)phenoxy]phenyl]acetic acid]
10 | > 10 | CN1CCc2cccc(Oc3ccc(Oc4cccc(CCC(=O)O)c4)c(C(F)(F)F)c3)c2C1 [Compound A-10, 3-[3-[4-[(2-methyl-3,4-dihydro-1H-isoquinolin-8-yl)oxy]-2-(trifluoromethyl)phenoxy]phenyl]propanoic acid]
11 | > 10 | O=C(O)CCc1cccc(Oc2ccc(Oc3cccc4c3OCCO4)cc2C(F)(F)F)c1 [Compound A-11, 3-[3-[4-(2,3-dihydro-1,4-benzodioxin-5-yloxy)-2-(trifluoromethyl)phenoxy]phenyl]propanoic acid]
12 | > 10 | O=C(O)CCc1cccc(Oc2ccc(Oc3cccc4cccnc34)cc2C(F)(F)F)c1 [Compound A-12, 3-[3-[4-(8-quinolyloxy)-2-(trifluoromethyl)phenoxy]phenyl]propanoic acid]
13 | > 10 | O=C(O)CCc1cccc(Oc2ccc(Oc3ccnc4ccccc34)cc2C(F)(F)F)c1 [Compound A-13, 3-[3-[4-(4-quinolyloxy)-2-(trifluoromethyl)phenoxy]phenyl]propanoic acid]
14 | < 5 | O=C(O)CCc1cccc(Oc2ccc(Oc3cccc4cnccc34)cc2C(F)(F)F)c1 [Compound A-14, 3-[3-[4-(5-isoquinolyloxy)-2-(trifluoromethyl)phenoxy]phenyl]propanoic acid]
15 | < 5 | Cn1cc2c(Oc3ccc(Oc4cccc(CC(=O)O)c4)c(C(F)(F)F)c3)cccc2n1 [Compound A-15, 2-[3-[4-(2-methylindazol-4-yl)oxy-2-(trifluoromethyl)phenoxy]phenyl]acetic acid]
16 | < 5 | Cn1ncc2c(Oc3ccc(Oc4cccc(CC(=O)O)c4)c(C(F)(F)F)c3)cccc21 [Compound A-16, 2-[3-[4-(1-methylindazol-4-yl)oxy-2-(trifluoromethyl)phenoxy]phenyl]acetic acid]

Row | IC50 [µM] | Compound
17 | > 10 | O=C(O)Cc1cccc(Oc2ccc(Oc3cccc4nncn34)cc2C(F)(F)F)c1 [Compound A-17, 2-[3-[4-([1,2,4]triazolo[4,3-a]pyridin-5-yloxy)-2-(trifluoromethyl)phenoxy]phenyl]acetic acid]
18 | < 5 | O=C(O)Cc1cccc(Oc2ccc(Oc3ccc4c(c3)NCCO4)cc2C(F)(F)F)c1 [Compound A-18, 2-[3-[4-(3,4-dihydro-2H-1,4-benzoxazin-6-yloxy)-2-(trifluoromethyl)phenoxy]phenyl]acetic acid]
19 | > 10 | O=C(O)Cc1cccc(Oc2ccc(Oc3ccn4cnnc4c3)cc2C(F)(F)F)c1 [Compound A-19, 2-[3-[4-([1,2,4]triazolo[4,3-a]pyridin-7-yloxy)-2-(trifluoromethyl)phenoxy]phenyl]acetic acid]
20 | < 5 | O=C(O)Cc1cccc(Oc2ccc(Oc3ccc4ccn(C5COC5)c4c3)cc2C(F)(F)F)c1 [Compound A-20, 2-[3-[4-[1-(oxetan-3-yl)indol-6-yl]oxy-2-(trifluoromethyl)phenoxy]phenyl]acetic acid]
21 | < 5 | O=C(O)Cc1cccc(Oc2ccc(Oc3ccc4cnn(C5COC5)c4c3)cc2C(F)(F)F)c1 [Compound A-21, 2-[3-[4-[1-(oxetan-3-yl)indazol-6-yl]oxy-2-(trifluoromethyl)phenoxy]phenyl]acetic acid]
22 | < 5 | O=C(O)Cc1cccc(Oc2ccc(Oc3ccc4cn(C5COC5)nc4c3)cc2C(F)(F)F)c1 [Compound A-22, 2-[3-[4-[2-(oxetan-3-yl)indazol-6-yl]oxy-2-(trifluoromethyl)phenoxy]phenyl]acetic acid]
23 | > 10 | O=C(O)Cc1cccc(Oc2ccc(Oc3ccc4c(cnn4C4COC4)c3)cc2C(F)(F)F)c1 [Compound A-23, 2-[3-[4-[1-(oxetan-3-yl)indazol-5-yl]oxy-2-(trifluoromethyl)phenoxy]phenyl]acetic acid]
24 | > 10 | O=C(O)Cc1cccc(Oc2ccc(Oc3ccc4nn(C5COC5)cc4c3)cc2C(F)(F)F)c1 [Compound A-24, 2-[3-[4-[2-(oxetan-3-yl)indazol-5-yl]oxy-2-(trifluoromethyl)phenoxy]phenyl]acetic acid]
25 | < 5 | O=C(O)Cc1cccc(Oc2ccc(Oc3ccc4nnn(C5COC5)c4c3)cc2C(F)(F)F)c1 [Compound A-25, 2-[3-[4-[3-(oxetan-3-yl)benzotriazol-5-yl]oxy-2-(trifluoromethyl)phenoxy]phenyl]acetic acid]
26 | < 5 | O=C(O)Cc1cccc(Oc2ccc(Oc3ccc4ncn(C5COC5)c4c3)cc2C(F)(F)F)c1 [Compound A-26, 2-[3-[4-[3-(oxetan-3-yl)benzimidazol-5-yl]oxy-2-(trifluoromethyl)phenoxy]phenyl]acetic acid]
27 | < 5 | Cc1nc2ccc(Oc3ccc(Oc4cccc(CC(=O)O)c4)c(C(F)(F)F)c3)cc2n1C1COC1 [Compound A-27, 2-[3-[4-[2-methyl-3-(oxetan-3-yl)benzimidazol-5-yl]oxy-2-(trifluoromethyl)phenoxy]phenyl]acetic acid]
28 | < 5 | Cc1nc2ccc(Oc3ccc(Oc4cccc(CC(=O)O)c4)c(C(F)F)c3)cc2n1C1COC1 [Compound A-28, 2-[3-[2-(difluoromethyl)-4-[2-methyl-3-(oxetan-3-yl)benzimidazol-5-yl]oxy-phenoxy]phenyl]acetic acid]
29 | > 10 | O=C(O)Cc1cccc(Oc2ccc(Oc3cnc4ncn(C5COC5)c4c3)cc2C(F)(F)F)c1 [Compound A-29, 2-[3-[4-[1-(oxetan-3-yl)imidazo[4,5-b]pyridin-6-yl]oxy-2-(trifluoromethyl)phenoxy]phenyl]acetic acid]
30 | > 10 | O=C(O)Cc1cccc(Oc2ccc(Oc3ccc4ccn(C5COC5)c4n3)cc2C(F)(F)F)c1 [Compound A-30, 2-[3-[4-[1-(oxetan-3-yl)pyrrolo[2,3-b]pyridin-6-yl]oxy-2-(trifluoromethyl)phenoxy]phenyl]acetic acid]
31 | < 5 | O=C(O)Cc1cccc(Oc2ccc(Oc3ccc4cnc(C(=O)O)n4c3)cc2C(F)(F)F)c1 [Compound A-31, 6-[4-[3-(carboxymethyl)phenoxy]-3-(trifluoromethyl)phenoxy]imidazo[1,5-a]pyridine-3-carboxylic acid]

— US11098026B2, “Fused bicyclic compounds, compositions and applications thereof” (IMPETIS BIOSCIENCES LIMITED, priority 2017, dated 2021)
